Measurements: patent publication US10730872B2, “Pesticidally active heterocyclic derivatives with sulphur containing sustitutents” (SYNGENTA PARTICIPATIONS AG, priority 2015, dated 2020)

Experiments:
Type in all cases: in vivo
[1] = system: Plutella xylostella; assay: Plutella xylostella (Diamond Back Moth); details: 120 h, application rate of 200 ppm, artificial diet, L2 larvae, 5 days after infestation, read-out: effect in at least one of the two categories (mortality or growth inhibition)
Description: 24-well microtiter plates with artificial diet were treated with aqueous test solutions prepared from 10,000 ppm DMSO stock solutions by pipetting. After drying, the plates were infested with L2 larvae (10 to 15 per well). The samples were assessed for mortality and growth inhibition in comparison to untreated samples 5 days after infestation.

[2] = system: Diabrotica balteata; assay: Diabrotica balteata (Corn Root Worm); details: 96 h, application rate of 200 ppm, sprayed maize sprouts, L2 larvae, 4 days after infestation, read-out: effect in at least one of the two categories (mortality or growth inhibition)
Description: Maize sprouts placed onto an agar layer in 24-well microtiter plates were treated with aqueous test solutions prepared from 10,000 ppm DMSO stock solutions by spraying. After drying, the plates were infested with L2 larvae (6 to 10 per well). The samples were assessed for mortality and growth inhibition in comparison to untreated samples 4 days after infestation.

[3] = system: Myzus persicae; assay: Myzus persicae (Green Peach Aphid): Feeding/Contact Activity; details: foliar, 144 h, application rate of 200 ppm, sprayed sunflower leaf discs, aphid population of mixed ages, 6 days after infestation
Description: Sunflower leaf discs were placed onto agar in a 24-well microtiter plate and sprayed with aqueous test solutions prepared from 10,000 ppm DMSO stock solutions. After drying, the leaf discs were infested with an aphid population of mixed ages. The samples were assessed for mortality 6 days after infestation.

[4] = system: Bemisia tabaci; assay: Bemisia tabaci (Cotton White Fly): Feeding/Contact Activity; details: foliar, 144 h, application rate of 200 ppm, sprayed cotton leaf discs, adult white flies, 6 days after incubation
Description: Cotton leaf discs were placed on agar in 24-well microtiter plates and sprayed with aqueous test solutions prepared from 10,000 ppm DMSO stock solutions. After drying the leaf discs were infested with adult white flies. The samples were checked for mortality 6 days after incubation.

[5] = system: Euschistus heros; assay: Euschistus heros (Neotropical Brown Stink Bug); details: 120 h, application rate of 200 ppm, sprayed soybean leaves, N2 nymphs, 5 days after infestation, read-out: effect in at least one of the two categories (mortality or growth inhibition)
Description: Soybean leaves on agar in 24-well microtiter plates were sprayed with aqueous test solutions prepared from 10,000 ppm DMSO stock solutions. After drying the leaves were infested with N2 nymphs. The samples were assessed for mortality and growth inhibition in comparison to untreated samples 5 days after infestation.

[6] = system: Aedes aegypti; assay: Aedes Aegypti (Yellow Fever Mosquito); details: 200 ppm in ethanol, dry deposit in 12 well plates, adult females, after 48 h and/or 24 h
Description: Test solutions, at an application rate of 200 ppm in ethanol, were applied to 12 well tissue culture plates. Once the deposits were dry, five, two to five day old adult female Aedes aegypti were added to each well, and sustained with a 10% sucrose solution in a cotton wool plug. Assessment of knockdown was made one hour after introduction, and mortality was assessed at 24 and 48 hours after introduction.

[7] = system: Spodoptera littoralis; assay: Spodoptera littoralis (Egyptian Cotton Leaf Worm), sprayed cotton leaf discs; details: foliar, 72 h, application rate of 200 ppm, L1 larvae, 3 days after infestation
In short: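 Cotton leaf discs on agar sprayed with aqueous dilutions of 10,000 ppm DMSO stocks, dried, then infested with five L1 larvae. Mortality, anti-feeding and growth inhibition scored against untreated discs 3 days after infestation. Control recorded when any one category exceeds the untreated sample.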

[8] = system: Spodoptera littoralis; assay: Spodoptera littoralis (Egyptian Cotton Leaf Worm), uptake by lettuce roots from agar; details: 144 h, test rate of 12.5 ppm, mixed with agar, absorbed by lettuce roots, Spodoptera eggs, 6 days after infestation, read-out: effect in at least one of the three categories (mortality, anti-feeding, or growth inhibition)
From the text: Test compounds were applied by pipette from 10,000 ppm DMSO stock solutions into 24-well plates and mixed with agar. Lettuce seeds were placed onto the agar and the multi well plate was closed by another plate which contained also agar. After 7 days the compound was absorbed by the roots and the lettuce grew into the lid plate. The lettuce leaves were then cut off into the lid plate. Spodoptera eggs were pipetted through a plastic stencil onto a humid gel blotting paper and the lid plate was closed with it. The samples were assessed for mortality, anti-feedant effect and growth inhibition in comparison to untreated samples 6 days after infestation.

[9] = system: Myzus persicae; assay: Myzus persicae (Green Peach Aphid). Systemic Activity; details: 144 h, test rate of 24 ppm, roots of infested pea seedlings in test solution, 6 days
Description: Roots of pea seedlings infested with an aphid population of mixed ages were placed directly into aqueous test solutions prepared from 10,000 DMSO stock solutions. The samples were assessed for mortality 6 days after placing seedlings into test solutions.

[10] = system: Tetranychus urticae; assay: Tetranychus urticae (Two-Spotted Spider Mite): Feeding/Contact Activity; details: foliar, 192 h, application rate of 200 ppm, sprayed bean leaf discs, mixed population (mobile stages), 8 days after infestation
Description: Bean leaf discs on agar in 24-well microtiter plates were sprayed with aqueous test solutions prepared from 10,000 ppm DMSO stock solutions. After drying the leaf discs were infested with a mite population of mixed ages. The samples were assessed for mortality on mixed population (mobile stages) 8 days after infestation.

CCn1c(C(F)(F)F)cc2nc(-c3nc(N(C)C4CC4)ccc3S(=O)(=O)CC)n(C)c2c1=O [Compound A12, 2-[6-[cyclopropyl(methyl)amino]-3-ethylsulfonyl-2-pyridyl]-5-ethyl-3-methyl-6-(trifluoromethyl)imidazo[4,5-c]pyridin-4-one]
≥ 80%: percent effect (mortality or growth inhibition) at 200 ppm [1] | effect mortality or growth inhibition at 200 ppm [2] | mortality at 200 ppm [3] | mortality at 200 ppm [4] | percent effect (mortality or growth inhibition) at 200 ppm [5] | pest or weed control at 200 ppm [6] | percent control (mortality, anti-feeding effect or growth inhibition) at 200 ppm [7]

CCn1c(C(F)(F)F)cc2nc(-c3nc(N)c(Cl)cc3S(=O)(=O)CC)n(C)c2c1=O [Compound A38, 2-(6-amino-5-chloro-3-ethylsulfonyl-2-pyridyl)-5-ethyl-3-methyl-6-(trifluoromethyl)imidazo[4,5-c]pyridin-4-one]
≥ 80%: percent effect (mortality or growth inhibition) at 200 ppm [1] | effect mortality or growth inhibition at 200 ppm [2] | mortality at 200 ppm [3] | mortality at 200 ppm [4] | percent effect (mortality or growth inhibition) at 200 ppm [5] | pest or weed control at 200 ppm [6] | percent control (mortality, anti-feeding effect or growth inhibition) at 200 ppm [7] | percent effect (mortality, anti-feeding or growth inhibition) at 12.5 ppm [8]

CCn1c(C(F)(F)F)cc2nc(-c3nc(N)c(Br)cc3S(=O)(=O)CC)n(C)c2c1=O [Compound A39, 2-(6-amino-5-bromo-3-ethylsulfonyl-2-pyridyl)-5-ethyl-3-methyl-6-(trifluoromethyl)imidazo[4,5-c]pyridin-4-one]
≥ 80%: percent effect (mortality or growth inhibition) at 200 ppm [1] | effect mortality or growth inhibition at 200 ppm [2] | mortality at 200 ppm [3] | mortality at 200 ppm [4] | percent effect (mortality or growth inhibition) at 200 ppm [5] | pest or weed control at 200 ppm [6] | percent control (mortality, anti-feeding effect or growth inhibition) at 200 ppm [7] | percent effect (mortality, anti-feeding or growth inhibition) at 12.5 ppm [8]

CCn1c(C(F)(F)F)cc2nc(-c3ncc(C(=O)NC4CC4)cc3S(=O)(=O)CC)n(C)c2c1=O [Compound A19, N-cyclopropyl-6-[5-ethyl-3-methyl-4-oxo-6-(trifluoromethyl)imidazo[4,5-c]pyridin-2-yl]-5-ethylsulfonyl-pyridine-3-carboxamide]
≥ 80%: mortality at 24 ppm [9] | percent effect (mortality or growth inhibition) at 200 ppm [1] | percent effect (mortality or growth inhibition) at 200 ppm [5] | mortality at 200 ppm [10]

CCn1c(C(F)(F)F)cc2nc(-c3ncc(N)cc3S(=O)(=O)CC)n(C)c2c1=O [Compound A5, 2-(5-amino-3-ethylsulfonyl-2-pyridyl)-5-ethyl-3-methyl-6-(trifluoromethyl)imidazo[4,5-c]pyridin-4-one]
≥ 80%: percent effect (mortality or growth inhibition) at 200 ppm [1] | effect mortality or growth inhibition at 200 ppm [2] | mortality at 200 ppm [3] | pest or weed control at 200 ppm [6] | percent control (mortality, anti-feeding effect or growth inhibition) at 200 ppm [7]

CCn1c(C(F)(F)F)cc2nc(-c3ncc(N(C)S(C)(=O)=O)cc3S(=O)(=O)CC)n(C)c2c1=O [Compound A13, N-[6-[5-ethyl-3-methyl-4-oxo-6-(trifluoromethyl)imidazo[4,5-c]pyridin-2-yl]-5-ethylsulfonyl-3-pyridyl]-N-methyl-methanesulfonamide]
≥ 80%: percent effect (mortality or growth inhibition) at 200 ppm [1] | mortality at 200 ppm [3] | percent effect (mortality or growth inhibition) at 200 ppm [5] | percent control (mortality, anti-feeding effect or growth inhibition) at 200 ppm [7] | mortality at 200 ppm [10]

CCS(=O)(=O)c1ccc(N)nc1-c1nc2cc(C(F)(F)F)n(C3CC3)c(=O)c2n1C [Compound A42, 2-(6-amino-3-ethylsulfonyl-2-pyridyl)-5-cyclopropyl-3-methyl-6-(trifluoromethyl)imidazo[4,5-c]pyridin-4-one]
≥ 80%: mortality at 24 ppm [9] | percent effect (mortality or growth inhibition) at 200 ppm [1] | effect mortality or growth inhibition at 200 ppm [2] | mortality at 200 ppm [3] | mortality at 200 ppm [4] | percent effect (mortality or growth inhibition) at 200 ppm [5] | percent control (mortality, anti-feeding effect or growth inhibition) at 200 ppm [7] | percent effect (mortality, anti-feeding or growth inhibition) at 12.5 ppm [8] | mortality at 200 ppm [10]

CCn1c(C(F)(F)F)cc2nc(-c3ncc(NC(=O)OC(C)(C)C)cc3S(=O)(=O)CC)n(C)c2c1=O [Compound A64, tert-butyl N-[6-[5-ethyl-3-methyl-4-oxo-6-(trifluoromethyl)imidazo[4,5-c]pyridin-2-yl]-5-ethylsulfonyl-3-pyridyl]carbamate]
≥ 80%: percent effect (mortality or growth inhibition) at 200 ppm [1] | mortality at 200 ppm [4] | percent effect (mortality or growth inhibition) at 200 ppm [5] | percent control (mortality, anti-feeding effect or growth inhibition) at 200 ppm [7] | mortality at 200 ppm [10]

CCn1c(C(F)(F)F)cc2nc(-c3nc(NC(=O)OC(C)(C)C)ccc3S(=O)(=O)CC)n(C)c2c1=O [Compound A66, tert-butyl N-[6-[5-ethyl-3-methyl-4-oxo-6-(trifluoromethyl)imidazo[4,5-c]pyridin-2-yl]-5-ethylsulfonyl-2-pyridyl]carbamate]
≥ 80%: percent effect (mortality or growth inhibition) at 200 ppm [1] | effect mortality or growth inhibition at 200 ppm [2] | mortality at 200 ppm [4] | percent control (mortality, anti-feeding effect or growth inhibition) at 200 ppm [7] | percent effect (mortality, anti-feeding or growth inhibition) at 12.5 ppm [8] | mortality at 200 ppm [10]

CCn1c(C(F)(F)F)cc2nc(-c3nc(N)c(C4CC4)cc3S(=O)(=O)CC)n(C)c2c1=O [Compound A71]
≥ 80%: mortality at 24 ppm [9] | percent effect (mortality or growth inhibition) at 200 ppm [1] | effect mortality or growth inhibition at 200 ppm [2] | mortality at 200 ppm [3] | mortality at 200 ppm [4] | percent effect (mortality or growth inhibition) at 200 ppm [5] | percent control (mortality, anti-feeding effect or growth inhibition) at 200 ppm [7] | mortality at 200 ppm [10]

CCn1c(C(F)(F)F)cc2nc(-c3ncc(NC4(C#N)CC4)cc3S(=O)(=O)CC)n(C)c2c1=O [Compound A24, 1-[[6-[5-ethyl-3-methyl-4-oxo-6-(trifluoromethyl)imidazo[4,5-c]pyridin-2-yl]-5-ethylsulfonyl-3-pyridyl]amino]cyclopropanecarbonitrile]
≥ 80%: percent effect (mortality or growth inhibition) at 200 ppm [1] | effect mortality or growth inhibition at 200 ppm [2] | percent effect (mortality or growth inhibition) at 200 ppm [5] | percent control (mortality, anti-feeding effect or growth inhibition) at 200 ppm [7] | mortality at 200 ppm [10]
